Key:
Format in all cases: in vivo
[1] = tested on: SAGITTARIA PYGMAEA, L.; assay: Preemergence weed control under flooded paddy conditions, SAGPY (Arrowhead (Pygmaea)); settings: preemergence, 3-4 weeks after treatment
Method: (§1) Results of herbicide evaluation are expressed on a rating scale (0-9). The scale is based upon a visual observation of plant stand, vigor, malformation, size, chlorosis and overall plant appearance as compared with a control.
(§2) Preemergence herbicidal activity under flooded paddy conditions is determined as follows: plant seeds or propagating organs are planted in the top 0.5 cm of silt loam soil in 32 oz. plastic containers with a diameter of 10.5 cm and no drainage holes. Water is added to these containers and maintained at 1.5 to 3 cm above the soil surface for the duration of the experiment. […] The treated containers are placed on greenhouse benches and cared for according to normal greenhouse procedures.- Three to four weeks after treatment the test is terminated and each container is examined and herbicidal effect rated according to the rating system provided in Example 40. The compounds evaluated are reported by compound number given in Example 40.
(§3) Plant species employed in this example are reported by header abbreviation, common name and scientific name.

[2] = tested on: CYPERUS IRIA; assay: Preemergence weed control under flooded paddy conditions, CYPIR (Rice Flatsedge); settings: for Herbicidal effect rating, CYPIR: preemergence, 3-4 weeks after treatment; for CYPIR herbicidal rating: preemergence weeds, rated three to four weeks after treatment
Method: as §1, §2, §3

[3] = tested on: ORYZA SATIVA, L. TEBONNET; assay: Rice tolerance to post-transplant applications under flooded paddy conditions, ORYSAT (Rice, Tebonnet); settings: post-transplant rice; for Herbicidal effect rating, ORYSAT: 3-4 weeks after treatment; for ORYSAT herbicidal rating (rice tolerance): rated three to four weeks after treatment
Method: as §1
The tolerance of transplanted rice to post-transplanted herbicide applications is determined as follows: two ten-day-old rice seedlings (CV. Tebonnet) are transplanted into a silt loam soil in 32 oz. plastic containers with a diameter of 10.5 cm and no drainage holes. After transplanting the containers are flooded and the water level is maintained at 1.5 to 3 cm above the soil surface. […] The treated containers are placed on greenhouse benches, watered such that the water level is maintained as stated above, and cared for according to normal greenhouse procedures. Three to four weeks after treatment the test is terminated and each container is examined and herbicidal effect rated according to the rating system provided in Example 40. The compounds evaluated are reported by compound number given in Example 40.
as §3

[4] = tested on: CYPERUS SEROTINUS, ROTTB.; assay: Preemergence weed control under flooded paddy conditions, CYPSE (Flatsedge); settings: preemergence, 3-4 weeks after treatment
Method: as §1, §2, §3

[5] = tested on: […], PRESL.; assay: Preemergence weed control under flooded paddy conditions, MOOVA (Monochoria); settings: for Herbicidal effect rating, MOOVA: preemergence, 3-4 weeks after treatment; for MOOVA herbicidal rating: preemergence weeds, rated three to four weeks after treatment
Method: as §1
Preemergence herbicidal activity under flooded paddy conditions is determined as follows: plant seeds or propagating organs are planted in the top 0.5 cm of silt loam soil in 32 oz. plastic containers with a diameter of 10.5 cm and no drainage holes. Water is added to these containers and maintained at 1.5 to 3 cm above the soil surface for the duration of the experiment. The test compounds are applied as aqueous/acetone mixtures 50/50 v/v pipetted directly into the flood water to give the equivalent of about 0.5, 0.25, 0.125 and 0.063 kg/ha of active ingredient. The treated containers are placed on greenhouse benches and cared for according to normal greenhouse procedures.- Three to four weeks after treatment the test is terminated and each container is examined and herbicidal effect rated according to the rating system provided in Example 40. The compounds evaluated are reported by compound number given in Example 40.
as §3

[6] = tested on: ECHINOCHLOA ORYZOIDES (ARD.)FRITSCH; assay: Preemergence weed control under flooded paddy conditions, ECHORC (Watergrass (Calif.)); settings: for Herbicidal effect rating, ECHORC: preemergence, 3-4 weeks after treatment; for ECHORC herbicidal rating: preemergence weeds, rated three to four weeks after treatment
Method: as §1, §2, §3

[7] = tested on: AMBROSIA ARTEMISIIFOLIA, L.; assay: Postemergence herbicidal evaluation, AMBEL (Ragweed, Common); settings: rated four to five weeks after treatment, averaged
Method: (§4) In the tests, seedling plants are grown in jiffy flats for about two weeks. The test compounds are dispersed in 50/50 acetone/water mixtures containing 0.5% TWEEN®20, a polyoxyethylene sorbitan monolaurate surfactant of Atlas Chemical Industries, […] to the plants through a spray nozzle operating at 40 psi for a predetermined time. After spraying, the plants are placed on greenhouse benches and are cared for in the usual manner, commensurate with conventional greenhouse practices. From four to five weeks after treatment, the seedling plants are examined and rated according to the rating system set forth below. Where more than one test is involved for a given compound, the data are averaged.
(§5) Plant species employed in these evaluations are reported by header abbreviation, common name and scientific name.
as §1

[8] = tested on: CHENOPODIUM ALBUM, L.; assay: Postemergence herbicidal evaluation, CHEAL (Lambsquarters, Common); settings: rated four to five weeks after treatment, averaged
Method: as §4, §5, §1

[9] = tested on: ABUTILON THEOPHRASTI, MEDIC.; assay: Postemergence herbicidal evaluation, ABUTH (Velvetleaf); settings: rated four to five weeks after treatment, averaged
Method: as §4, §5, §1

[10] = tested on: CHENOPODIUM ALBUM, L.; assay: Preemergence herbicidal evaluation, CHEAL (Lambsquarters, Common); settings: for CHEAL rating: four to five weeks after treatment; for CHEAL herbicidal rating: rated four to five weeks after treatment
Source text: as §1
The preemergence herbicidal activity of the test compounds of the present invention is exemplified by the following tests in which the seeds of a variety of monocotyledonous and dicotyledonous plants are separately mixed with potting soil and planted on top of approximately one inch of soil in separate pint cups. […] The treated cups are then placed on greenhouse benches, watered and cared for in accordance with conventional greenhouse procedures. From four to five weeks after treatment, the tests are terminated and each cup is examined and rated according to the rating system provided in Example 40.
The compounds evaluated are reported by compound number given in Example 40.

[11] = tested on: CASSIA OBTUSIFOLIA, L.; assay: Postemergence herbicidal evaluation, CASOB (Sicklepod); settings: rated four to five weeks after treatment, averaged
Method: In the tests, seedling plants are grown in jiffy flats for about two weeks. The test compounds are dispersed in 50/50 acetone/water mixtures containing 0.5% TWEEN®20, a polyoxyethylene sorbitan monolaurate surfactant of Atlas Chemical Industries, in sufficient quantities to provide the equivalent of about 0.125 kg to 0.500 kg per hectare of active compound when applied to the plants through a spray nozzle operating at 40 psi for a predetermined time. After spraying, the plants are placed on greenhouse benches and are cared for in the usual manner, commensurate with conventional greenhouse practices. From four to five weeks after treatment, the seedling plants are examined and rated according to the rating system set forth below. Where more than one test is involved for a given compound, the data are averaged.
as §5, §1

[12] = tested on: IPOMOEA SPP.; assay: Postemergence herbicidal evaluation, IPOSS (Morningglory spp.); settings: rated four to five weeks after treatment, averaged
Method: as §4, §5, §1

Structure (SMILES): C=CCn1c(=O)n(CC(=O)OCC)c(=O)n(-c2cc(Oc3ccc(C(F)(F)F)cc3Cl)ccc2[N+](=O)[O-])c1=O [Compound 13, Ethyl 3-allyl-5-{5-[(2-chloro-α,α,α-tri-fluoro-p-tolyl)oxy]-2-nitrophenyl}tetra-hydro-2,4,6-trioxo-s-triazine-1(2H)-acetate]
- Herbicidal effect rating, SAGPY ([1]; 0.063 kg/ha): 0.0
- Herbicidal effect rating, SAGPY ([1]; 0.125 kg/ha): 0.0
- Herbicidal effect rating, SAGPY ([1]; 0.250 kg/ha): 0.0
- Herbicidal effect rating, SAGPY ([1]; 0.500 kg/ha): 0.0
- Herbicidal effect rating, CYPIR ([2]; 0.063 kg/ha): 9.0
- Herbicidal effect rating, CYPIR ([2]; 0.125 kg/ha): 9.0
- Herbicidal effect rating, CYPIR ([2]; 0.250 kg/ha): 9.0
- Herbicidal effect rating, CYPIR ([2]; 0.500 kg/ha): 9.0
- Herbicidal effect rating, ORYSAT ([3]; 0.063 kg/ha): 2.0
- Herbicidal effect rating, ORYSAT ([3]; 0.125 kg/ha): 2.0
- Herbicidal effect rating, ORYSAT ([3]; 0.250 kg/ha): 3.0
- Herbicidal effect rating, ORYSAT ([3]; 0.500 kg/ha): 3.0
- Herbicidal effect rating, CYPSE ([4]; 0.063 kg/ha): 0.0
- Herbicidal effect rating, CYPSE ([4]; 0.125 kg/ha): 0.0
- Herbicidal effect rating, CYPSE ([4]; 0.250 kg/ha): 0.0
- Herbicidal effect rating, CYPSE ([4]; 0.500 kg/ha): 0.0
- Herbicidal effect rating, MOOVA ([5]; 0.063 kg/ha): 9.0
- Herbicidal effect rating, MOOVA ([5]; 0.125 kg/ha): 9.0
- Herbicidal effect rating, MOOVA ([5]; 0.250 kg/ha): 9.0
- Herbicidal effect rating, MOOVA ([5]; 0.500 kg/ha): 9.0
- Herbicidal effect rating, ECHORC ([6]; 0.063 kg/ha): 9.0
- Herbicidal effect rating, ECHORC ([6]; 0.125 kg/ha): 9.0
- Herbicidal effect rating, ECHORC ([6]; 0.250 kg/ha): 9.0
- Herbicidal effect rating, ECHORC ([6]; 0.500 kg/ha): 9.0

Structure (SMILES): CCOC(=O)Cn1c(=O)n(C)c(=O)n(-c2cc(Oc3ccc(C(F)(F)F)cc3Cl)ccc2[N+](=O)[O-])c1=O [Compound 9, Ethyl 3-{5-[(2-chloro-α,α,α-trifluoro-p-tolyl)oxy]-2-nitrophenyl}tetrahydro-5-methyl-2,4,6-trioxo-s-triazine-1(2H)-acetate]
- AMBEL, herbicide rating (0-9) ([7]; Rate 0.125 kg/ha): 9.0
- AMBEL, herbicide rating (0-9) ([7]; Rate 0.250 kg/ha): 9.0
- AMBEL, herbicide rating (0-9) ([7]; Rate 0.500 kg/ha): 9.0
- CYPIR herbicidal rating ([2]; Rate 0.063 kg/ha): 9.0
- CYPIR herbicidal rating ([2]; Rate 0.125 kg/ha): 9.0
- CYPIR herbicidal rating ([2]; Rate 0.250 kg/ha): 9.0
- CYPIR herbicidal rating ([2]; Rate 0.500 kg/ha): 9.0
- CHEAL, herbicide rating (0-9) ([8]; Rate 0.125 kg/ha): 9.0
- CHEAL, herbicide rating (0-9) ([8]; Rate 0.250 kg/ha): 9.0
- CHEAL, herbicide rating (0-9) ([8]; Rate 0.500 kg/ha): 9.0
- ABUTH, herbicide rating (0-9) ([9]; Rate 0.125 kg/ha): 9.0
- ABUTH, herbicide rating (0-9) ([9]; Rate 0.250 kg/ha): 9.0
- ABUTH, herbicide rating (0-9) ([9]; Rate 0.500 kg/ha): 9.0
- ORYSAT herbicidal rating (rice tolerance) ([3]; Rate 0.063 kg/ha): 3.3
- ORYSAT herbicidal rating (rice tolerance) ([3]; Rate 0.125 kg/ha): 3.7
- ORYSAT herbicidal rating (rice tolerance) ([3]; Rate 0.250 kg/ha): 5.7
- ORYSAT herbicidal rating (rice tolerance) ([3]; Rate 0.500 kg/ha): 6.0
- CHEAL rating ([10]; Rate 0.125 kg/ha): 9.0
- CHEAL rating ([10]; Rate 0.250 kg/ha): 9.0
- CHEAL rating ([10]; Rate 0.500 kg/ha): 9.0
- CASOB, herbicide rating (0-9) ([11]; Rate 0.125 kg/ha): 9.0
- CASOB, herbicide rating (0-9) ([11]; Rate 0.250 kg/ha): 9.0
- CASOB, herbicide rating (0-9) ([11]; Rate 0.500 kg/ha): 9.0
- MOOVA herbicidal rating ([5]; Rate 0.063 kg/ha): 9.0
- MOOVA herbicidal rating ([5]; Rate 0.125 kg/ha): 9.0
- MOOVA herbicidal rating ([5]; Rate 0.250 kg/ha): 9.0
- MOOVA herbicidal rating ([5]; Rate 0.500 kg/ha): 9.0
- ECHORC herbicidal rating ([6]; Rate 0.063 kg/ha): 9.0
- ECHORC herbicidal rating ([6]; Rate 0.125 kg/ha): 9.0
- ECHORC herbicidal rating ([6]; Rate 0.250 kg/ha): 9.0
- ECHORC herbicidal rating ([6]; Rate 0.500 kg/ha): 9.0
- IPOSS, herbicide rating (0-9) ([12]; Rate 0.125 kg/ha): 9.0
- IPOSS, herbicide rating (0-9) ([12]; Rate 0.250 kg/ha): 9.0
- IPOSS, herbicide rating (0-9) ([12]; Rate 0.500 kg/ha): 9.0

Structure (SMILES): COC(=O)Cn1c(=O)n(C)c(=O)n(-c2cc(Oc3c(Cl)cc(Cl)cc3Cl)ccc2[N+](=O)[O-])c1=O [Compound 33, Methyl tetrahydro-3-methyl-5-[2-nitro-5-(2,4,6-trichlorophenoxy)phenyl]-2,4,6-trioxo-s-triazine-1(2H)-acetate]
- Herbicidal effect rating, SAGPY ([1]; 0.063 kg/ha): 0.0
- Herbicidal effect rating, SAGPY ([1]; 0.125 kg/ha): 0.0
- Herbicidal effect rating, SAGPY ([1]; 0.250 kg/ha): 0.0
- Herbicidal effect rating, SAGPY ([1]; 0.500 kg/ha): 0.0
- Herbicidal effect rating, CYPIR ([2]; 0.063 kg/ha): 9.0
- Herbicidal effect rating, CYPIR ([2]; 0.125 kg/ha): 9.0
- Herbicidal effect rating, CYPIR ([2]; 0.250 kg/ha): 9.0
- Herbicidal effect rating, CYPIR ([2]; 0.500 kg/ha): 9.0
- Herbicidal effect rating, ORYSAT ([3]; 0.063 kg/ha): 3.0
- Herbicidal effect rating, ORYSAT ([3]; 0.125 kg/ha): 3.0
- Herbicidal effect rating, ORYSAT ([3]; 0.250 kg/ha): 3.0
- Herbicidal effect rating, ORYSAT ([3]; 0.500 kg/ha): 4.0
- CHEAL herbicidal rating ([10]; Rate 0.125 kg/ha): 9.0
- CHEAL herbicidal rating ([10]; Rate 0.250 kg/ha): 9.0
- CHEAL herbicidal rating ([10]; Rate 0.500 kg/ha): 9.0
- Herbicidal effect rating, CYPSE ([4]; 0.063 kg/ha): 0.0
- Herbicidal effect rating, CYPSE ([4]; 0.125 kg/ha): 0.0
- Herbicidal effect rating, CYPSE ([4]; 0.250 kg/ha): 0.0
- Herbicidal effect rating, CYPSE ([4]; 0.500 kg/ha): 0.0
- Herbicidal effect rating, MOOVA ([5]; 0.063 kg/ha): 9.0
- Herbicidal effect rating, MOOVA ([5]; 0.125 kg/ha): 9.0
- Herbicidal effect rating, MOOVA ([5]; 0.250 kg/ha): 9.0
- Herbicidal effect rating, MOOVA ([5]; 0.500 kg/ha): 9.0
